This experiment has as its target T1, hSTING (Homo sapiens, UniProt Q86WV6, G230A/H232R/R293Q/R71H).
T1 construct: host or cells: THP1-Dual KO-IFNAR2 cells
As to the kind of experiment: STING reporter assay in THP1-Dual KO-IFNAR2 cells (2′3′cGAMP stimulation, luciferase reporter). The class given is cell-based. The note with it: final 2′3′cGAMP 15 μM, 24 h, luciferase reporter activity. The procedure: STING pathway activation by the compounds described herein was measured using THP1-Dual™ cells (KO-IFNAR2).
THP1-Dual™ KO-IFNAR2 Cells (obtained from invivogen) were maintained in RPMI, 10% FCS, 5 ml P/S, 2 mM L-glut, 10 mM Hepes, and 1 mM sodium pyruvate. Compounds were spotted in empty 384 well tissue culture plates (Greiner 781182) by Echo for a final concentration of 0.0017-100 μM. Cells were plated into the TC plates at 40 μL per well, 2×10E6 cells/mL. For activation with STING ligand, 2′3′cGAMP (MW 718.38, obtained from Invivogen), was prepared in Optimem media.
The following solutions were prepared for each 1×384 plate: • Solution A: 2 mL Optimem with one of the following stimuli: • 60 μL of 10 mM 2′3′cGAMP→150 μM stock • Solution B: 2 mL Optimem with 60 μL Lipofectamine 2000→Incubate 5 min at RT
2 mL of solution A and 2 ml Solution B was mixed and incubated for 20 min at room temperature (RT). 20 μL of transfection solution (A+B) was added on top of the plated cells, with a final 2′3′cGAMP concentration of 15 μM. The plates were then centrifuged immediately at 340 g for 1 minute, after which they were incubated at 37° C., 5% CO2, >98% humidity for 24 h. Luciferase reporter activity was then measured. EC50 values were calculated by using standard methods known in the art.
Luciferase reporter assay: 10 μL of supernatant from the assay was transferred to white 384-plate with flat bottom and squared wells. One pouch of QUANTI-Luc™ Plus was dissolved in 25 mL of water. 100 μL of QLC Stabilizer per 25 mL of QUANTI-Luc™ Plus solution was added. 50 μL of QUANTI-Luc™ Plus/QLC solution per well was then added. Luminescence was measured on a Platereader (e.g., Spectramax I3X (Molecular Devices GF3637001)).
Luciferase reporter activity was then measured. EC50 values were calculated by using standard methods known in the art.
On the technique in general: A reporter such as luciferase makes a cellular process visible.

T1 sequence (Q86WV6 whole entry R71H/G230A/H232R/R293Q): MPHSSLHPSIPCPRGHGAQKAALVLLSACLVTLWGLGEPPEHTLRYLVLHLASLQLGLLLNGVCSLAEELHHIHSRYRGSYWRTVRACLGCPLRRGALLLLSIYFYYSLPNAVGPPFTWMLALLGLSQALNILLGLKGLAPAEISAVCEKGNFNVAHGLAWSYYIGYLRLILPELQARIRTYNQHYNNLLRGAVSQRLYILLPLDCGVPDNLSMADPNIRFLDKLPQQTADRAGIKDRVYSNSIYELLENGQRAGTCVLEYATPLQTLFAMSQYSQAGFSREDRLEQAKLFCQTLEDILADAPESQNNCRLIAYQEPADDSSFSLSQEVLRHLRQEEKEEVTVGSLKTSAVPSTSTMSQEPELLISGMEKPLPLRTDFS

Usually EC50 stands for the concentration at which the effect is half-maximal. Read a low EC50 as an effect from little substance. `CCc1ccc(-n2cc(-c3ccc4[nH]cc(NS(=O)(=O)CC5CCCO5)c4c3)cn2)cc1` (stereo not shown) [Compound 101, N-(5-(1-(4-ethylphenyl)-1H-pyrazol-4-yl)-1H-indol-3-yl)-1-(tetrahydrofuran-2-yl)methanesulfonamide] had a half-maximal effective concentration (EC50) of 0.2 to 1 µM.
With `CCc1ccc(-n2cc(-c3ccc4[nH]cc(NS(=O)(=O)CC5CC5)c4c3)cn2)cc1` [Compound 102, 1-cyclopropyl-N-(5-(1-(4-ethylphenyl)-1H-pyrazol-4-yl)-1H-indol-3-yl)methanesulfonamide] the figure was 0.2 to 1 µM; with `CCc1ccc(-n2cc(-c3ccc4[nH]cc(NS(=O)(=O)C5CCC5)c4c3)cn2)cc1` [Compound 103, N-(5-(1-(4-ethylphenyl)-1H-pyrazol-4-yl)-1H-indol-3 yl)cyclobutanesulfonamide], 0.2 to 1 µM; with `CCc1ccc(-n2cc(-c3ccc4[nH]cc(NS(=O)(=O)CC)c4c3)cn2)cc1` [Compound 104, N-(5-(1-(4-ethylphenyl)-1H-pyrazol-4-yl)-1H-indol-3-yl)ethanesulfonamide], 1 to 5 µM.
